Experimental data: patent US8741884B2, “Compounds for the treatment of hepatitis C” (priority 2010, dated 2014)

The molecules below were run on HCV pseudoparticles (genotype 1a HCV E1 and E2 envelope, H77C isolate) (assay: microbe, parasite or virus in culture). Conditions: Hepatitis C virus, Huh-7, 48 h, class symbol; HCV pseudoparticles genotype 1a (H77C), Huh7 cells, luciferase 2 days after infection, average of duplicates.
Format: cell-based

Row | Compound | EC50 [nM]
1 | O=C1NCCCCCCNc2nc(nc(OCC(F)(F)F)n2)Nc2cccc1c2 [Example 1001] | 1000 to 50000
2 | COc1nc2nc(n1)OCc1cccc(c1)Nc1nc(nc(OCC(F)(F)F)n1)NCCN2 [Example 1002] | 1000 to 50000
3 | C=C1COc2ccc(cc2)CNc2nc(nc(OCC(F)(F)F)n2)Nc2ccc(C(=O)O)c(c2)OC1 [Example 1005] | 1000 to 50000
4 | C=C1COc2ccc(cc2)CNc2nc(nc(OCC(F)(F)F)n2)Nc2ccc(C(=O)NCC3(CN4CCCC4)CC3)c(c2)OC1 [Example 1006] | 1000 to 50000
5 | COC(=O)c1ccc2cc1OCCOCCOCCOc1ccc(cc1)CNc1nc(nc(OCC(F)(F)F)n1)N2 [Example 1007] | 1000 to 50000
6 | CN(C)CC(C)(C)CNC(=O)c1ccc2cc1OCCCCCOc1ccc(cc1)CNc1nc(nc(OCC(F)(F)F)n1)N2 [Example 1009] | 0.1 to 100
7 | CN(C)CC(C)(C)CNC(=O)c1ccc2cc1OCCCCCCCCOc1ccc(cc1)CNc1nc(nc(OCC(F)(F)F)n1)N2 [Example 1010] | 0.1 to 100
8 | CN(C)CC(C)(C)CNC(=O)c1ccc2cc1OCCOCCOCCOc1ccc(cc1)CNc1nc(nc(OCC(F)(F)F)n1)N2 [Example 1011] | 0.1 to 100
9 | CC(C)(C)OC(=O)N1CCCC(NC(=O)c2ccc3cc2OCCCCCCCCOc2ccc(cc2)CNc2nc(nc(OCC(F)(F)F)n2)N3)C1 (centres unmarked) [Example 1012] | 0.1 to 100
10 | O=C(NC1CCCNC1)c1ccc2cc1OCCCCCCCCOc1ccc(cc1)CNc1nc(nc(OCC(F)(F)F)n1)N2 (centres unmarked) [Example 1013] | 0.1 to 100
11 | O=C1NCCNc2nc(nc(OCC(F)(F)F)n2)Nc2cccc(c2)CNC(=O)OCCO1 [Example 1014] | 1000 to 50000
12 | O=C1COCC(=O)NCc2cccc(c2)Nc2nc(nc(OCC(F)(F)F)n2)NCCN1 [Example 1015] | 1000 to 50000
13 | COC(=O)CCNC(=O)c1ccc2cc1OCCCCCCCCOc1ccc(cc1)CNc1nc(nc(OCC(F)(F)F)n1)N2 [Example 1017] | 100 to 1000
14 | CC(C)(C)OC(=O)NC1(C(=O)O)CCN(C(=O)c2ccc3cc2OCCCCCCCCOc2ccc(cc2)CNc2nc(nc(OCC(F)(F)F)n2)N3)C1 (centres unmarked) [Example 1018] | 1000 to 50000
15 | CN(C)CC(C)(C)CNC(=O)c1ccc2cc1OCCCC(O)C(O)CCCOc1ccc(cc1)CNc1nc(nc(OCC(F)(F)F)n1)N2 (centres unmarked) [Example 1022] | 0.1 to 100
16 | COC(=O)CCCNC(=O)c1ccc2cc1OCCCCCCCCOc1ccc(cc1)CNc1nc(nc(OCC(F)(F)F)n1)N2 [Example 1101] | 0.1 to 100
17 | O=C(NCC1(CN2CCCC2)CC1)c1ccc2cc1OCCCCCCCCOc1ccc(cc1)CNc1nc(nc(OCC(F)(F)F)n1)N2 [Example 1102] | 0.1 to 100
18 | COC(=O)CC1CCN(C(=O)c2ccc3cc2OCCCCCCCCOc2ccc(cc2)CNc2nc(nc(OCC(F)(F)F)n2)N3)C1 (centres unmarked) [Example 1103] | 1000 to 50000
19 | COC(=O)CNC(=O)c1ccc2cc1OCCCCCCCCOc1ccc(cc1)CNc1nc(nc(OCC(F)(F)F)n1)N2 [Example 1104] | 100 to 1000
20 | CC(C)(C)OC(=O)N1CCC(CNC(=O)c2ccc3cc2OCCCCCCCCOc2ccc(cc2)CNc2nc(nc(OCC(F)(F)F)n2)N3)C1 (centres unmarked) [Example 1105] | 0.1 to 100
21 | COC(=O)C(NC(=O)c1ccc2cc1OCCCCCCCCOc1ccc(cc1)CNc1nc(nc(OCC(F)(F)F)n1)N2)C1CCCN(C(=O)OC(C)(C)C)C1 (centres unmarked) [Example 1106] | 0.1 to 100
22 | N=C(N)CNC(=O)c1ccc2cc1OCCCCCCCCOc1ccc(cc1)CNc1nc(nc(OCC(F)(F)F)n1)N2 [Example 1107] | 0.1 to 100
23 | CC(C)(C)OC(=O)N1CCC2(CCN(C(=O)c3ccc4cc3OCCCCCCCCOc3ccc(cc3)CNc3nc(nc(OCC(F)(F)F)n3)N4)C2)C1 (centres unmarked) [Example 1109] | 100 to 1000
24 | O=C(O)CNC(=O)c1ccc2cc1OCCCCCCCCOc1ccc(cc1)CNc1nc(nc(OCC(F)(F)F)n1)N2 [Example 1131] | 100 to 1000
25 | O=C(O)CC1CCN(C(=O)c2ccc3cc2OCCCCCCCCOc2ccc(cc2)CNc2nc(nc(OCC(F)(F)F)n2)N3)C1 (centres unmarked) [Example 1132] | 1000 to 50000
26 | O=C(CNC(=O)c1ccc2cc1OCCCCCCCCOc1ccc(cc1)CNc1nc(nc(OCC(F)(F)F)n1)N2)NS(=O)(=O)C1CC1 [Example 1133] | 100 to 1000

Row | Compound | EC50 [nM]
27 | O=C(NCC1CCNC1)c1ccc2cc1OCCCCCCCCOc1ccc(cc1)CNc1nc(nc(OCC(F)(F)F)n1)N2 (centres unmarked) [Example 1151] | 0.1 to 100
28 | COC(=O)C(NC(=O)c1ccc2cc1OCCCCCCCCOc1ccc(cc1)CNc1nc(nc(OCC(F)(F)F)n1)N2)C1CCCNC1 (centres unmarked) [Example 1152] | 0.1 to 100
29 | O=C(c1ccc2cc1OCCCCCCCCOc1ccc(cc1)CNc1nc(nc(OCC(F)(F)F)n1)N2)N1CCC2(CCNC2)C1 (centres unmarked) [Example 1153] | 100 to 1000
30 | CN(C)CC(C)(C)CNC(=O)c1ccc2cc1OCCCCCCCOc1ccc(cc1)CNc1nc(nc(OCC(F)(F)F)n1)N2 [Example 1201] | 0.1 to 100
31 | CN(C)CC(C)(C)CNC(=O)c1ccc2cc1OCCCCCCOc1ccc(cc1)CNc1nc(nc(OCC(F)(F)F)n1)N2 [Example 1202] | 0.1 to 100
32 | COC(=O)c1ccc2cc1OCCCCCCOc1ccc(cc1)CNc1nc(nc(OCC(F)(F)F)n1)N2 [Example 1301] | 100 to 1000
33 | O=C(O)c1ccc2cc1OCCCCCCOc1ccc(cc1)CNc1nc(nc(OCC(F)(F)F)n1)N2 [Example 1302] | 1000 to 50000
34 | COC(=O)CCNC(=O)c1ccc2cc1OCCCCCCOc1ccc(cc1)CNc1nc(nc(OCC(F)(F)F)n1)N2 [Example 1303] | 100 to 1000
35 | COC(=O)C(NC(=O)c1ccc2cc1OCCCCCCOc1ccc(cc1)CNc1nc(nc(OCC(F)(F)F)n1)N2)C1CCCN(C(=O)OC(C)(C)C)C1 (centres unmarked) [Example 1304] | 0.1 to 100
36 | CC(C)(C)OC(=O)N1CCC(CNC(=O)c2ccc3cc2OCCCCCCOc2ccc(cc2)CNc2nc(nc(OCC(F)(F)F)n2)N3)C1 (centres unmarked) [Example 1305] | 0.1 to 100
37 | CC(C)(C)OC(=O)N1CCCC1CNC(=O)c1ccc2cc1OCCCCCCOc1ccc(cc1)CNc1nc(nc(OCC(F)(F)F)n1)N2 (centres unmarked) [Example 1306] | 0.1 to 100
38 | COC(=O)[C@H](CCNC(=O)OC(C)(C)C)NC(=O)c1ccc2cc1OCCCCCCOc1ccc(cc1)CNc1nc(nc(OCC(F)(F)F)n1)N2 [Example 1307] | 0.1 to 100
39 | CCOC(=O)[C@@H]1CN(C(=O)OC(C)(C)C)C[C@H]1NC(=O)c1ccc2cc1OCCCCCCOc1ccc(cc1)CNc1nc(nc(OCC(F)(F)F)n1)N2 [Example 1308] | 0.1 to 100
40 | COC(=O)[C@@H](CNC(=O)OC(C)(C)C)NC(=O)c1ccc2cc1OCCCCCCOc1ccc(cc1)CNc1nc(nc(OCC(F)(F)F)n1)N2 [Example 1309] | 100 to 1000
41 | COC(=O)C(NC(=O)c1ccc2cc1OCCCCCCOc1ccc(cc1)CNc1nc(nc(OCC(F)(F)F)n1)N2)C1CCN(C(=O)OC(C)(C)C)C1 (centres unmarked) [Example 1310] | 0.1 to 100
42 | N=C(N)NCCC[C@H](NC(=O)c1ccc2cc1OCCCCCCOc1ccc(cc1)CNc1nc(nc(OCC(F)(F)F)n1)N2)C(N)=O [Example 1313] | 0.1 to 100
43 | N=C(N)NCCCCNC(=O)c1ccc2cc1OCCCCCCOc1ccc(cc1)CNc1nc(nc(OCC(F)(F)F)n1)N2 [Example 1314] | 0.1 to 100
44 | CCOC(=O)[C@H](CCCNC(=N)N)NC(=O)c1ccc2cc1OCCCCCCOc1ccc(cc1)CNc1nc(nc(OCC(F)(F)F)n1)N2 [Example 1317] | 0.1 to 100
45 | NC(=O)C(Cc1ccccc1)NC(=O)c1ccc2cc1OCCCCCCOc1ccc(cc1)CNc1nc(nc(OCC(F)(F)F)n1)N2 (centres unmarked) [Example 1319] | 0.1 to 100
46 | CCOC(=O)[C@H]1CN(C(=O)OC(C)(C)C)C[C@H]1NC(=O)c1ccc2cc1OCCCCCCOc1ccc(cc1)CNc1nc(nc(OCC(F)(F)F)n1)N2 [Example 1320] | 0.1 to 100
47 | COC(=O)[C@H](CNC(=O)OC(C)(C)C)NC(=O)c1ccc2cc1OCCCCCCOc1ccc(cc1)CNc1nc(nc(OCC(F)(F)F)n1)N2 [Example 1321] | 0.1 to 100
48 | COC(=O)[C@H](CNC(=O)c1ccccc1)NC(=O)c1ccc2cc1OCCCCCCOc1ccc(cc1)CNc1nc(nc(OCC(F)(F)F)n1)N2 [Example 1323] | 0.1 to 100
49 | O=C(NC1CCNC1=O)c1ccc2cc1OCCCCCCOc1ccc(cc1)CNc1nc(nc(OCC(F)(F)F)n1)N2 (centres unmarked) [Example 1324] | 0.1 to 100
50 | CC(C)(C)OC(=O)N[C@@H](CCNC(=O)c1ccc2cc1OCCCCCCOc1ccc(cc1)CNc1nc(nc(OCC(F)(F)F)n1)N2)C(=O)OC(C)(C)C [Example 1325] | 0.1 to 100
51 | N=C(N)NCCC[C@H](NC(=O)c1ccc2cc1OCCCCCCOc1ccc(cc1)CNc1nc(nc(OCC(F)(F)F)n1)N2)C(=O)O [Example 1402] | 0.1 to 100
52 | N=C(N)NC[C@H](NC(=O)c1ccc2cc1OCCCCCCOc1ccc(cc1)CNc1nc(nc(OCC(F)(F)F)n1)N2)C(=O)O [Example 1403] | 0.1 to 100

Same assay, conditions: Hepatitis C virus, Huh-7, 48 h, numeric value; HCV pseudoparticles genotype 1a (H77C), Huh7 cells, luciferase 2 days after infection, average of duplicates

Row | Compound | EC50 [nM]
53 | COC(=O)c1ccc2cc1OCCOCCOCCOc1ccc(cc1)CNc1nc(nc(OCC(F)(F)F)n1)N2 [Example 1007] | 9840
54 | CN(C)CC(C)(C)CNC(=O)c1ccc2cc1OCCCCCCCCOc1ccc(cc1)CNc1nc(nc(OCC(F)(F)F)n1)N2 [Example 1010] | 5.14
55 | O=C1COCC(=O)NCc2cccc(c2)Nc2nc(nc(OCC(F)(F)F)n2)NCCN1 [Example 1015] | 3060
56 | CC(C)(C)OC(=O)NC1(C(=O)O)CCN(C(=O)c2ccc3cc2OCCCCCCCCOc2ccc(cc2)CNc2nc(nc(OCC(F)(F)F)n2)N3)C1 (centres unmarked) [Example 1018] | 5640
57 | CC(C)(C)OC(=O)N1CCC(CNC(=O)c2ccc3cc2OCCCCCCCCOc2ccc(cc2)CNc2nc(nc(OCC(F)(F)F)n2)N3)C1 (centres unmarked) [Example 1105] | 49.1

Same assay, conditions: read-out: EC50

Row | Compound | EC50 [nM]
58 | COC(=O)c1ccc2cc1OCCCCOC[C@H](c1ccccc1)Nc1nc(nc(OCC(F)(F)F)n1)N2 [Example 1003] | 1000 to 50000
59 | O=C(O)c1ccc2cc1OCCCCOC[C@H](c1ccccc1)Nc1nc(nc(OCC(F)(F)F)n1)N2 [Example 1004] | 1000 to 50000
60 | C=C1CNCCNc2nc(nc(OCC(F)(F)F)n2)Nc2cccc(c2)CNC1 [Example 1016] | 1000 to 50000
61 | COC(=O)c1ccc2cc1OCCCC=CCCCOc1ccc(cc1)CNc1nc(nc(OCC(F)(F)F)n1)N2 [Example 1019] | 100 to 1000
62 | O=C(O)c1ccc2cc1OCCCC=CCCCOc1ccc(cc1)CNc1nc(nc(OCC(F)(F)F)n1)N2 [Example 1020] | 1000 to 50000
